In ChEMBL document CHEMBL3431459, “Roche carnitine palmitoyltransferase modulator screening data (supplementary data associated with the publication CHEMBL2216752)”:
pIC50: −log10 of the molar value.

What was measured:
[1] = biological target: T1, Carnitine O-palmitoyltransferase 2, mitochondrial (Homo sapiens, UniProt P23786); test: (§1) SUPPLEMENTARY: Inhibition of Carnitine palmitoyltransferase 2
T1 sequence (P23786 whole entry): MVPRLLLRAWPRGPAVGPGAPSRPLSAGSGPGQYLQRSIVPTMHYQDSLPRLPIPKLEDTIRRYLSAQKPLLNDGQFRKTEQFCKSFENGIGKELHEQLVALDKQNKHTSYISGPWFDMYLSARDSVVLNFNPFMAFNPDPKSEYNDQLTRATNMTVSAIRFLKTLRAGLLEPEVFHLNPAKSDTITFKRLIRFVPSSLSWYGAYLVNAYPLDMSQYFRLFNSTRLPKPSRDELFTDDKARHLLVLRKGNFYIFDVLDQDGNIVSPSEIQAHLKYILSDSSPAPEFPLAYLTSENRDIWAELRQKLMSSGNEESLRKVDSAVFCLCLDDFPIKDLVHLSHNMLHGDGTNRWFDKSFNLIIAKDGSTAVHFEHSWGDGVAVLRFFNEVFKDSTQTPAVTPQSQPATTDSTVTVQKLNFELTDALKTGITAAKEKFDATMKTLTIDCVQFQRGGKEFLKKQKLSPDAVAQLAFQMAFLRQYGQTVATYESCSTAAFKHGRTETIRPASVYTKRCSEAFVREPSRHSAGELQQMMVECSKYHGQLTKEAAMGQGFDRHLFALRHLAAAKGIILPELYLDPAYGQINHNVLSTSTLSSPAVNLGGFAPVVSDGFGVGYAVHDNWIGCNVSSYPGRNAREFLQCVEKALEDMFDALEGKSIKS

[2] = biological target: T2, Carnitine O-palmitoyltransferase 2, mitochondrial (Rattus norvegicus, UniProt P18886); test: as §1
T2 sequence (P18886 whole entry): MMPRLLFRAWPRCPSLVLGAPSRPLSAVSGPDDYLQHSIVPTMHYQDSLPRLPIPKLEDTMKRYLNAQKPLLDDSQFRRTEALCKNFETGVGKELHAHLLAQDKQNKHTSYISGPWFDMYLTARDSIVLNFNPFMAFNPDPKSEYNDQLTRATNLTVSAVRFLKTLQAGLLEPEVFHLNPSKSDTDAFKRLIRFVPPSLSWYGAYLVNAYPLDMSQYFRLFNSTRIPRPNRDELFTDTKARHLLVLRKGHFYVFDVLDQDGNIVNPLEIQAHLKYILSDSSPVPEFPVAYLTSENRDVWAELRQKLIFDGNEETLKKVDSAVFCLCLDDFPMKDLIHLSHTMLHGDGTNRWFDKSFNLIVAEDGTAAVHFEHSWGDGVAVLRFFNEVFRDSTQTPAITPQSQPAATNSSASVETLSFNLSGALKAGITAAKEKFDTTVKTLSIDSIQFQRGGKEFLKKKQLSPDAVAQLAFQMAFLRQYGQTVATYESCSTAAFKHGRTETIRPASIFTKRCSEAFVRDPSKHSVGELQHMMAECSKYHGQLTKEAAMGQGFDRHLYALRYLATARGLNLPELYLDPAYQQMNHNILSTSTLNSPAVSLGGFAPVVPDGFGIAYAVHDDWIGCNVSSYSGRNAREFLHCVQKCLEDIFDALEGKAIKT

[3] = biological target: T3, Carnitine O-palmitoyltransferase 1, liver isoform (Rattus norvegicus, UniProt P32198); test: (§2) SUPPLEMENTARY: Inhibition of Carnitine palmitoyltransferase 1, liver isoform
T3 sequence (P32198 whole entry): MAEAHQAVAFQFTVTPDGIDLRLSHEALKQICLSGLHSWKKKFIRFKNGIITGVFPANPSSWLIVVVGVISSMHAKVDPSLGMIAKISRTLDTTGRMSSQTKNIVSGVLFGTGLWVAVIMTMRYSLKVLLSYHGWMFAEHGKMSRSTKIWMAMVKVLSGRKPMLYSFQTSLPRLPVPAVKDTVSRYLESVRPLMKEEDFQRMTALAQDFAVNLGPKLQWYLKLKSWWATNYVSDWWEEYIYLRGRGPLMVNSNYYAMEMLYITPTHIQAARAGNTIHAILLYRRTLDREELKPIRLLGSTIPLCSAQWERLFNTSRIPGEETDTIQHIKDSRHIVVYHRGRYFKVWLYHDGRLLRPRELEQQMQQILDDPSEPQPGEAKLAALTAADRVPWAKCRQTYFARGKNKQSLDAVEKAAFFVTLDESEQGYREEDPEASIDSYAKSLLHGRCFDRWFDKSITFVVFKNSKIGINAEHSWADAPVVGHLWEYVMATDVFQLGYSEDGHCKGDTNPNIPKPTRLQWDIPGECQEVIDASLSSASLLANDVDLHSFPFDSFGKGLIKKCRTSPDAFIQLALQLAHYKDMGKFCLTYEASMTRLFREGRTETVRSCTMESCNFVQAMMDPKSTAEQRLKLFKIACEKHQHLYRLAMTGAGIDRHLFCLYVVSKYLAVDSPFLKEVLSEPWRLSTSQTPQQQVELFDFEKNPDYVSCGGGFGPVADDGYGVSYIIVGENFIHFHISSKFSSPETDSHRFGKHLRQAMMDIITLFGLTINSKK

[4] = biological target: T4, Carnitine O-palmitoyltransferase 1, muscle isoform (Homo sapiens, UniProt Q92523); test: SUPPLEMENTARY: Inhibition of Carnitine palmitoyltransferase 1, muscle isoform; set-up: species or system Muscle tissue
T4 sequence (Q92523 whole entry): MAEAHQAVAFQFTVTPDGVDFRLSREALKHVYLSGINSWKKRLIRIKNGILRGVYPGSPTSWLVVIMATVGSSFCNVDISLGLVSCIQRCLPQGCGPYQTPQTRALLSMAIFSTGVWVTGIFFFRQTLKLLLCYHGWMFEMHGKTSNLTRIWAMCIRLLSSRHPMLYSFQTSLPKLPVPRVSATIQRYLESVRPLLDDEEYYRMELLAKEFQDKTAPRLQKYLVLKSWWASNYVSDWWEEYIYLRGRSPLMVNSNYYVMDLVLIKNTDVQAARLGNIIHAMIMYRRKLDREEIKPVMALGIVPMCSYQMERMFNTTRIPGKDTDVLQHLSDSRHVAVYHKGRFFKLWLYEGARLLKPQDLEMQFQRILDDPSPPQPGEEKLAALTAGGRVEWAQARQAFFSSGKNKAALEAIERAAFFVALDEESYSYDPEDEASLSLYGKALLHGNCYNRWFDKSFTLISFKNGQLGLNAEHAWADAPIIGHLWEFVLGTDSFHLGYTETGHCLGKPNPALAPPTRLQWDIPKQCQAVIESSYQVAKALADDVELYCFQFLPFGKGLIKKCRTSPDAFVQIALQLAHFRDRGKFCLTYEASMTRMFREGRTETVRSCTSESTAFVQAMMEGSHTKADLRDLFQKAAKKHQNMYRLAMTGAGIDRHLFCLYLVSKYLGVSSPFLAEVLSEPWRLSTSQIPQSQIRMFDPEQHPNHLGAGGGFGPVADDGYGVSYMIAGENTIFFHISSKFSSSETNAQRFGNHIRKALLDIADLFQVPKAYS

[5] = biological target: T5, Carnitine O-palmitoyltransferase 1, liver isoform (Homo sapiens, UniProt P50416); test: as §2
T5 sequence (P50416 whole entry): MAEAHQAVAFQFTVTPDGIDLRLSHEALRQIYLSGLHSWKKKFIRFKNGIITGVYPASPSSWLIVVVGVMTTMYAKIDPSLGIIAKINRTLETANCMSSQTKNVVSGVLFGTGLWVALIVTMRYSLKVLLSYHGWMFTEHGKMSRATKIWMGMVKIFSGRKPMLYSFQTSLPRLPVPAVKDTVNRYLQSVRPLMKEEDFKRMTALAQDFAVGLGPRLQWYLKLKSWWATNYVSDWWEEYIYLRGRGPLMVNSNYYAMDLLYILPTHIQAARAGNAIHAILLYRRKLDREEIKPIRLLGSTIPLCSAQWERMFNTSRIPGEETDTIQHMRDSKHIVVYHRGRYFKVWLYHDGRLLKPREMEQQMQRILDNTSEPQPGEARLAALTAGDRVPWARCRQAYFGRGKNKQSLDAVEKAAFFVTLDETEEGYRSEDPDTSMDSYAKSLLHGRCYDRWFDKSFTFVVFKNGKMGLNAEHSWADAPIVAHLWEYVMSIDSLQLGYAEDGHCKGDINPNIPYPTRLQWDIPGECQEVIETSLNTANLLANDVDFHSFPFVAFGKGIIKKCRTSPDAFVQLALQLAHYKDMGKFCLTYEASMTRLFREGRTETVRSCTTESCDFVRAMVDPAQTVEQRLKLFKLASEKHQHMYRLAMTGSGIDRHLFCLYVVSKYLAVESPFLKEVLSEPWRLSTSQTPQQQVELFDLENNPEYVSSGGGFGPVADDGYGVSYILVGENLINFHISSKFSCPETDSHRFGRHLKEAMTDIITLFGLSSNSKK

pIC50 [1] | pIC50 [2] | pIC50 [3] | pIC50 [4] | pIC50 [5] | SMILES
5.43 | < 4.00 | 6.92 | < 4.00 |  | CC(=O)Nc1ccc(-c2csc([C@H]3CCCCN3C(=O)COc3ccccc3)n2)cc1
4.49 | 4.05 | 6.23 | 4.22 |  | O=C(COc1ccccc1)N1CCCC[C@@H]1c1csc(-c2cnccn2)n1
5.69 |  | 7.15 | 5.57 | 6.60 | Cc1cc(C)cc(S(=O)(=O)N2CCOc3ccc(C(=O)Nc4ccc(C(=O)O)c(F)c4)cc32)c1
 |  | 6.73 |  |  | COc1ccc(C)cc1S(=O)(=O)N1CCCc2ccc(C(=O)Nc3ccc(CC(=O)O)cc3)cc21
< 4.00 | < 4.00 | 5.92 | < 4.00 |  | COC(=O)c1ccc(-c2nc([C@H]3CCCCN3C(=O)COc3ccccc3)cs2)cc1
< 4.00 | < 4.00 | 5.44 | < 4.00 |  | O=C(COc1ccccc1)N1CCCC[C@@H]1c1csc(C2COc3ccccc3O2)n1 (some centres not stated)
< 4.00 |  | 6.02 | < 4.00 | 6.69 | O=C(COc1ccccc1)N1CCCCC1c1ncc(-c2cccc([N+](=O)[O-])c2)s1 (configuration not stated)
5.79 | 5.55 |  | < 4.00 | 6.19 | O=C([C@H]1CCCCN1C(=O)COc1ccccc1)N1CCc2ccc([N+](=O)[O-])cc2C1
4.09 | 4.00 | 6.52 | 4.71 |  | O=C(O)c1cccc(-c2csc([C@H]3CCCCN3C(=O)COc3ccccc3)n2)n1
< 4.00 |  | 5.80 | < 4.00 | 6.55 | O=C(COc1ccccc1)N1CCCCC1c1cc(=O)n(-c2ccc(F)cc2)[nH]1 (configuration not stated)
< 4.00 | < 4.00 | 5.54 | < 4.00 |  | O=C(COc1ccccc1)N1CCCC[C@@H]1c1csc(Cc2ccc(Cl)cc2)n1
< 4.00 | < 4.00 | 6.36 | < 4.00 |  | O=C(COc1ccccc1)N1CCCC[C@@H]1c1csc(-c2ccc(F)cc2)n1
4.32 | < 4.00 | 5.87 | 5.25 |  | O=C(COc1ccccc1)N1CCCC[C@@H]1c1nc(-c2ccc(Br)s2)cs1

More lines, now with the values behind:

SMILES | pIC50 [1] | pIC50 [2] | pIC50 [3] | pIC50 [4] | pIC50 [5]
O=C(O)c1ccc(-c2nc([C@H]3CCCCN3C(=O)COc3ccccc3)cs2)cc1 | 5.29 | < 4.00 | 5.65 | < 4.00 | 
N#Cc1cccc(-c2csc([C@H]3CCCCN3C(=O)COc3ccccc3)n2)c1 | 5.18 | 4.17 | 6.89 | 5.09 | 
O=C(COc1ccccc1)N1CCCC[C@@H]1c1nc(-c2ccc(O)cc2)cs1 | < 4.00 | < 4.00 | 6.64 | 4.46 | 
COc1ccc(Cl)cc1S(=O)(=O)N1COc2c(OC)cc(C(=O)Nc3ccc(C(=O)O)cc3)cc21 | 6.11 | 5.67 |  | 4.54 | 6.28
COC(=O)c1cccc(-c2csc([C@H]3CCCCN3C(=O)COc3ccccc3)n2)n1 | 4.77 | < 4.00 | 6.76 | 5.12 | 
O=C(COc1ccccc1)N1CCCC[C@@H]1c1nc(-c2ccc(O)cc2)no1 | 4.12 |  | 6.91 | 4.41 | 7.14
O=C(COc1ccccc1)N1CCCC[C@@H]1c1csc(-c2ccncc2)n1 | < 4.00 | 4.10 | 6.66 | < 4.00 | 
O=C(COc1ccccc1)N1CCCC[C@@H]1c1csc(-c2ccc(C(F)(F)F)cn2)n1 | 4.30 | < 4.00 | 5.70 | < 4.00 | 
O=C1Cc2cc(-c3csc([C@H]4CCCCN4C(=O)COc4ccccc4)n3)ccc2N1 | 6.16 | 4.37 | 6.81 | < 4.00 | 
O=C(COc1ccccc1)N1CCCC[C@@H]1c1nc(-c2ccc3c(c2)OCO3)cs1 | 4.25 | < 4.00 | 6.65 | < 4.00 | 
O=C(COc1ccccc1)N1CCCC[C@@H]1c1csc(-c2cccnc2)n1 | < 4.00 | 4.28 | 7.20 | 5.38 | 
O=C1CN(NC(=O)c2cccc(-c3n[nH]c([C@H]4CCCCN4C(=O)COc4ccccc4)n3)c2)C(=O)N1 | 4.71 |  | 6.24 | < 4.00 | 6.56
